Data published in article PMC8246065 (The EMBO Journal, 2021).

Tests used:
[1] = test system: HeLa inducible NOD1 or NOD2 cells; assay: ELISA of IL6/IL8 in supernatants of HeLa inducible NOD1 or NOD2 cells; type: cell-based, human; conditions: for Effect of inhibitor on IL6 production by cytosolic S1P: inhibitor pretreatment, S1P 10 µM with digitonin (5 µg/ml), Appendix Fig S3A-D; for IL6 production: lipid 10 µM, Appendix Fig S3E,F; for IL6 production upon stressor stimulation: Fig 1A-1D; for IL6 production in the presence of dynasore: Fig EV1D,E (S2B-S2E in rebuttal)
Method: (§1) To differentiate THP‐1 into macrophage‐like cells, THP‐1 cells were stimulated with 50 ng/ml phorbol 12‐myristate 13‐acetate (Sigma‐Aldrich, P8139) for 24 h and then incubated with fresh medium for another 48 h. […] To induce NOD1 or NOD2 expression, HeLa NOD1 or NOD2 cells were treated with 0.5 µg/ml or 0.25 µg/ml doxycycline for at least 16 h, respectively. All cells have been checked for mycoplasma contamination regularly. Bone marrow‐derived macrophages (BMDMs) were obtained from tibial and femural bones and generated with DMEM containing 20% L929 cell supernatant, 10% FBS, 5% heat‐inactivated horse serum, 1 mM sodium pyruvate, and 2 mM L‐glutamine. For BMDM stimulation experiments, BMDMs were treated with IFN‐γ (20 ng/ml) overnight before stimulation.

[2] = test system: HEK293T NOD1/2 KO cells transfected with NOD1 or NOD2 mutants; assay: IL8 ELISA of HEK293T cells transfected with NOD1/NOD2 mutants; type: cell-based, human; conditions: for IL8 production in cells expressing LRR-deficient NOD1/2 (NOD1/2∆LRR): 20 µM with digitonin, 20 h
Method: as §1
The mutagenesis was performed with Q5® site‐directed mutagenesis kit (E0554, NEB) according to the manufacturer's instructions. The primers used in this study were as follows: NOD1 E157A F: 5′‐[…]gcg[…]‐3′, NOD1 E157A R: 5′‐[…]‐3′, NOD1 D161A F: 5′‐[…]gcg[…]‐3′, NOD1 D161A R: 5′‐[…]‐3′, NOD1 D203A F: 5′‐[…]gcg[…]‐3′, D203A R: 5′‐[…]‐3′, L218A F: 5′‐[…]gcg[…]‐3′, L218A R: 5′‐[…]‐3′, R237A F: 5′‐[…]gcg[…]‐3′, R237A R: 5′‐[…]‐3′, H257A F: 5′‐[…]gcg[…]‐3′, H257A R: 5′‐[…]‐3′, E267A F: 5′‐[…]gcg[…]‐3′, E267A R: 5′‐[…]‐3′, H290A F: 5′‐[…]gcg[…]‐3′, H290A R: 5′‐[…]‐3′, E306A F: 5′‐[…]gcg[…]‐3′, E306A R: 5′‐[…]‐3′, K324A F: 5′‐[…]gcg[…]‐3′, K324A R: 5′‐[…]‐3′, K328A F: 5′‐[…]gcg[…]‐3′, K328A R: 5′‐[…]‐3′, R340A F: 5′‐[…]gcg[…]‐3′, R340A R: 5′‐[…]‐3′, R344A F: 5′‐[…]gcg[…]‐3′, R344A R: 5′‐[…]‐3′, R350A F: 5′‐[…]gcg[…]‐3′, R350A R: 5′‐[…]‐3′, D372A F: 5′‐[…]gcg[…]‐3′, D372A R: 5′‐[…]‐3′, R373A F: 5′‐[…]gcg[…]‐3′, R373A R: 5′‐[…]‐3′, R399A F: 5′‐[…]gcg[…]‐3′, R399A R: 5′‐[…]‐3′, D423A F: 5′‐[…]gcg[…]‐3′, D423A R: 5′‐[…]‐3′, R435A F: 5′‐5′‐[…]gcg[…]‐3′, R435A R: 5′‐[…]‐3′, Q484A F: 5′‐[…]gcg[…]‐3′, Q484A R: 5′‐[…]‐3′, L495A F: 5′‐[…]gcg[…]‐3′, L495A R: 5′‐[…]‐3′, E514A F: 5′‐[…]gcg[…]‐3′, E514A R: 5′‐[…]‐3′, H517A F: 5′‐[…]gcg[…]‐3′, H517A R: 5′‐[…]‐3′, L540A F: 5′‐[…]gcg[…]‐3′, L540A R: 5′‐[…]‐3′, F544A F: 5′‐[…]gcg[…]‐3′, and F544A R: 5′‐[…]‐3′.

NOD2 = NOD2 (Homo sapiens, UniProt Q9HC29); assay: Microscale thermophoresis (MST) binding to purified NOD2-GFP
Method: (§2) The lysates were incubated with 2 ml GFP‐Trap agarose at 4°C for 4 h. The agarose was collected with Poly‐Prep columns by gravity flow. […] To remove heat shock proteins, columns were further washed with 50 ml wash buffer III (50 mM Tris–HCl, pH 7.5, 150 mM NaCl, 5 mM MgCl2+, 1 mM ATP). To elute the proteins, the agarose was mixed with 2 ml elution buffer (100 mM Glycine, pH 2.5) for 1 min and the eluted proteins were immediately neutralized with 0.2 ml of 1 M Tris, pH 10.5.

NOD1 = molecular target: T1, NOD1 (Homo sapiens, UniProt Q9Y239); assay: Microscale thermophoresis (MST) binding to purified NOD1-GFP
T1 sequence (Q9Y239 1-953): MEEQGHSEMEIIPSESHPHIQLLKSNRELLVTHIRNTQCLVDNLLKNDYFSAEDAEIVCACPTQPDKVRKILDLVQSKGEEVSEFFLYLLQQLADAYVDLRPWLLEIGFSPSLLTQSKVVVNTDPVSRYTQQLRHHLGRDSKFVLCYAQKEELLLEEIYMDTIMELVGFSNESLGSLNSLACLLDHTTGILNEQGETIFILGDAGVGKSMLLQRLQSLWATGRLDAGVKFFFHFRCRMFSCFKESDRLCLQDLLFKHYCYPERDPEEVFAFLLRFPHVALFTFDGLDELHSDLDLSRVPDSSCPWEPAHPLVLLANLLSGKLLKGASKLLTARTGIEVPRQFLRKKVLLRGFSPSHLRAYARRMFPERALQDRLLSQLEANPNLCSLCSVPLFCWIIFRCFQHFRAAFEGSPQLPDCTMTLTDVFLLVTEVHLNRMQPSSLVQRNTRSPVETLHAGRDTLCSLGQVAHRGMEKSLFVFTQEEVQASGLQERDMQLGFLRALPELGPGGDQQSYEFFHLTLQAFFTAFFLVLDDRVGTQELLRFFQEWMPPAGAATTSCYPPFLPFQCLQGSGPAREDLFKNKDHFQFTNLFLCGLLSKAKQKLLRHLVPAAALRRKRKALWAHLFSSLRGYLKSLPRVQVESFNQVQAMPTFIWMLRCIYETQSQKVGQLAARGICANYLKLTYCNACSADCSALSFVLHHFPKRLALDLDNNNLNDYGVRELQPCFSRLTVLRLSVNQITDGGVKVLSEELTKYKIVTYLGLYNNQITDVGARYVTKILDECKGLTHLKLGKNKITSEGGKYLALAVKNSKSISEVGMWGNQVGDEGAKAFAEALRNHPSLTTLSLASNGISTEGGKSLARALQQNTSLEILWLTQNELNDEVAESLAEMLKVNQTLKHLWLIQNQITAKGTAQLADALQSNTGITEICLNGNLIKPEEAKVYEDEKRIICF
Method: as §2

Sequence of NOD2 (Q9HC29 whole entry): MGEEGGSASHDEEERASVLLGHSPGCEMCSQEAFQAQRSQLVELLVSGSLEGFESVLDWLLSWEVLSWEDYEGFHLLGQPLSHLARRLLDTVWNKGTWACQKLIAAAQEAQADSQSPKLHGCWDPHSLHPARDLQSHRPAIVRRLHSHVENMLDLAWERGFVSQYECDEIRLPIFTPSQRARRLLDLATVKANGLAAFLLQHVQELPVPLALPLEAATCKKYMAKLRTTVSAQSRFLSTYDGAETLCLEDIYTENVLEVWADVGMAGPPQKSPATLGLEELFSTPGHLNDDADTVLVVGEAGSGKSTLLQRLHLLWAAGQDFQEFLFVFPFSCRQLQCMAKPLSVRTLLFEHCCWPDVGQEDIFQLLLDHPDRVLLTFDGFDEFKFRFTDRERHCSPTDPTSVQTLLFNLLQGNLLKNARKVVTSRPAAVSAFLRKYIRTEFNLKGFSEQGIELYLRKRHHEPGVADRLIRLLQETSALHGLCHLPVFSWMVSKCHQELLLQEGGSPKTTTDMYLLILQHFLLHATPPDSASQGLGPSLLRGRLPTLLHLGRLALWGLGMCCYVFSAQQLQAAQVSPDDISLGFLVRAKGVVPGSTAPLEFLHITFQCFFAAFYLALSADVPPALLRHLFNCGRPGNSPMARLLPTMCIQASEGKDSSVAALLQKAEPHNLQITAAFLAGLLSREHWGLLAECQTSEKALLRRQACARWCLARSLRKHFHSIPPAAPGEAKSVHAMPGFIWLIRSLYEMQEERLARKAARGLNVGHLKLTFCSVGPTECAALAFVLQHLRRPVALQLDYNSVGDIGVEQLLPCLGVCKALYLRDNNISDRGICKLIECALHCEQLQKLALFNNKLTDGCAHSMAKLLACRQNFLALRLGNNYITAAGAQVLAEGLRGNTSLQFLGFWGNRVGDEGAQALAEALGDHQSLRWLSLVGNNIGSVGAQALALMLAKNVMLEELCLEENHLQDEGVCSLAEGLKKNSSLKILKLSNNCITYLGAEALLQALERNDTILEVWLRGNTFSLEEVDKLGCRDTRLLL

Molecule	Effect of inhibitor on IL6 production by cytosolic S1P [1]	IL6 production in the presence of dynasore ([1]; Dynasore 50 µM)	also measured
Cc1nn(C)c2nc(NNC(=O)Nc3c(Cl)cncc3Cl)cc(C(C)C)c12 [JTE013]	failed to block		
CCCCCCc1cccc(NC(=O)[C@H](N)CCP(=O)(O)O)c1 [W146]	failed to block		
CCCCCCCCCCCCC/C=C/[C@@H](O)[C@H](CO)NC(C)=O [C2 ceramide]			IL6 production [1]: did not induce IL6 production
Cc1cc(CN)cc(C)c1NC(=O)c1ccc(-c2cc(Cl)ccc2Cl)o1 [CYM50358]	failed to block		
C[C@H]1CCC/C=C/[C@@H]2C[C@H](O)C[C@H]2[C@H](O)/C=C/C(=O)O1 [BFA, brefeldin A]			IL6 production upon stressor stimulation [1]: did not induce IL6 production
CCCCCCCCc1ccc(CCC(N)(CO)CO)cc1 [FTY720]	failed to block		
CC(C)(C)S(=O)(=O)c1ccc2nccc(Nc3n[nH]c4ccc(F)cc34)c2c1 [GSK583]	abolished		
CC(=O)c1ncc([C@@H](O)[C@H](O)[C@H](O)CO)[nH]1 [THI]	higher IL6 production		
COC(=O)Nc1nc2ccc(C(=O)c3cccs3)cc2[nH]1 [nocodazole]		higher IL6 production	
CC(=O)O[C@H]1C(=O)[C@@]2(C)[C@H]([C@H](OC(=O)c3ccccc3)[C@]3(O)C[C@H](OC(=O)[C@H](O)[C@@H](NC(=O)c4ccccc4)c4ccccc4)C(C)=C1C3(C)C)[C@]1(OC(C)=O)CO[C@@H]1C[C@@H]2O [paclitaxel]		higher IL6 production	
CC(=O)N[C@@H]1[C@@H](O[C@H](C)C(=O)N[C@@H](C)C(=O)N[C@H](CCC(=O)O)C(N)=O)[C@H](O)[C@@H](CO)O[C@H]1O [MDP]		impaired	IL8 production in cells expressing LRR-deficient NOD1/2 (NOD1/2∆LRR) [2]: not; IL8 production / activation in HEK293T cells expressing NOD2 1007fs ([2]; 20 µM, 48 h, digitonin): unresponsive; Binding affinity of NOD2 for MDP in the presence or absence of S1P (NOD2; Fig 6H, S1P 2 µM): not affected
CCCCCCCCc1cccc(NC(=O)[C@H](N)COP(=O)(O)O)c1 [VPC23019]	failed to block		
N[C@H](CCC(=O)N[C@H](CCC[C@H](N)C(=O)O)C(=O)O)C(=O)O [iE-DAP]		impaired	Binding affinity of NOD1 for iE-DAP in the presence or absence of S1P (NOD1; Fig 6G, S1P 2 µM): not affected; IL8 production in cells expressing LRR-deficient NOD1/2 (NOD1/2∆LRR) [2]: not; Activation (IL8) of NOD1 K328A or H517A ([2]; Fig EV5H): activated
C=C1[C@@H](C)[C@H]2[C@H](Cc3ccccc3)NC(=O)[C@]23[C@H](OC(C)=O)/C=C/[C@@](C)(O)C(=O)[C@@H](C)C/C=C/[C@H]3[C@@H]1O [cytochalasin D]		higher IL6 production	
pertussis toxin	failed to block		
CC[C@@]1([C@@H]2O[C@@H]([C@H]3O[C@@](O)(CO)[C@H](C)C[C@@H]3C)C[C@@H]2C)CC[C@H]([C@]2(C)CC[C@]3(C[C@H](O)[C@@H](C)[C@@H]([C@@H](C)[C@@H](OC)[C@H](C)C(=O)O)O3)O2)O1 [monensin]			IL6 production upon stressor stimulation [1]: did not induce IL6 production
CCCCCCCCCCCCC/C=C/[C@@H](O)[C@@H](N)CO [sphingosine]			IL6 production [1]: did not induce IL6 production
O=C(N/N=C/c1ccc(O)c(O)c1)c1cc2ccccc2cc1O [Dynasore]			Effect of endocytosis inhibition on IL6 production in response to stress stimulations ([1]; Dynasore 50 µM): not blocked
CCCCCCCCCCCCC/C=C/[C@@H](O)[C@H](CO)NC(=O)CCCCCCCCCCCCCCC [C16 ceramide]			Interaction with NOD1 by MST (NOD1; Fig EV5B): not detected; IL6 production [1]: did not induce IL6 production; Interaction with NOD2 by MST (NOD2; Fig EV5C): not detected
CCCCC[C@H](CC(=O)NO)C(=O)N[C@H](C(=O)N1CCC[C@H]1CO)C(C)C [actinonin]		higher IL6 production	
